The nature of series [1]: Fluorescence spectrum in TE buffer of dyes selected from live cell imaging. The class given is physicochemical. As to conditions: dye 10 μM in TE buffer. As for the experimental part:
(§1) The fluorescence spectra data in the primary screening and selected dyes titration assay study was obtained by Gemini XS plate reader. RNA solution was prepared right before the assay experiments to avoid possible degradation and contamination. In the primary screening, 1 mg/mL RNA (type VI from torula yeast) buffer solution was used. Point scans were carried out first using five Ex/Em point sets ([…], 400/500, 450/550, 500/600, 550/650 nm). Spectra scans were then carried out for the selected dyes. Excitation wavelengths were set at 350 nm, 400 nm, 450 nm, 500 nm, and 550 nm and the emission wavelengths were scanned. RNA (16S- and 23S-ribosomal from E. coli) and DNA (salmon testes) titration experiments and quantum yield/extinction coefficient determination for the three best dyes were carried out by the plate reader as well. Excitation λmax obtained from F-2500 Hitachi Fluorophotometer was used. Absorbance wavelength was determined by SpectraMax Plus^384 absorbance plate reader. […] was chosen as standard and 480 nm was used as excitation wavelength in the scanning for quantum yield determination.

The subject of series [2] is RNA (Type VI from torula yeast). Nature of the series: In vitro solution assay (primary screening): fluorescent emission fold change upon binding to RNA. As to conditions: dye 10 μM, RNA 500 μg/mL in TE buffer. The procedure: as §1
The screening strategy used in this study is illustrated in FIG. 2. Both in vitro RNA assays and live cell imaging methods were utilized in the primary screening of the dye library. Selective binding of the dye to RNA in solution was the primary criterion for selecting lead compounds for subsequent bioimaging studies, Herein, the library dyes' fluorescent emission intensity fold change upon binding to RNA was measured in solution. Dyes showing five-fold or higher emission changes in the presence of RNA were selected (Table 3). Note the dyes listed are identified by the building blocks I and II from Table 2. For example, A4 is the product made by reacting compound A from the list of Building block I and compound 4 from the list of Building block II.

For the compound `COc1ccc2c(ccc(C=Cc3ccc(O)c(Br)c3)[n+]2C)c1` [Dye F158], in series [1], the SPECTRUM EM came to 620 nm and the SPECTRUM EX came to 500 nm. Besides, in series [2], the “Em(nm)” value was 620 nm, the “Ex(nm)” value is given as 500 nm and the “Fold (fluorescent emission fold changes to RNA)” value came to 7.

The record behind these values is US7790896B2, “RNA-selective probes for live cell imaging of nuclear structure and function” (New York University, priority 2006, dated 2010).
